PubChem BioAssay (NCI)
Several values for one entry are separate records, joined by “and”; a condition that tells them apart may be missing. Equal values may be shown once.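 How tested: cells in 96-well plates exposed to compound for 48 hours at five concentrations. GI50 marks 50% less growth. TGI: total growth inhibition.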

Assays:
Assay in all cases: NCI tumour cell line growth inhibition, 48 h
EKVX NSCLC = tested on: EKVX NSCLC
UACC-257 melanoma = tested on: UACC-257 melanoma
MDA-MB-435 = tested on: MDA-MB-435
SK-MEL-28 melanoma = tested on: SK-MEL-28 melanoma
LOX IMVI melanoma = tested on: LOX IMVI melanoma
NCI-H23 lung = tested on: NCI-H23 lung
HCT-116 colon = tested on: HCT-116 colon
SF-268 CNS = tested on: SF-268 CNS
HOP-92 NSCLC = tested on: HOP-92 NSCLC
SW-620 colon = tested on: SW-620 colon

| Structure (SMILES) | GI50 (EKVX NSCLC) [µM] | TGI (EKVX NSCLC) | GI50 (UACC-257 melanoma) [µM] | TGI (UACC-257 melanoma) [µM] | GI50 (MDA-MB-435) [µM] | TGI (MDA-MB-435) | GI50 (SK-MEL-28 melanoma) [µM] | TGI (SK-MEL-28 melanoma) | GI50 (LOX IMVI melanoma) [µM] | TGI (LOX IMVI melanoma) | GI50 (NCI-H23 lung) [µM] | TGI (NCI-H23 lung) | GI50 (HCT-116 colon) [µM] | TGI (HCT-116 colon) | GI50 (SF-268 CNS) [µM] | TGI (SF-268 CNS) | GI50 (HOP-92 NSCLC) [µM] | TGI (HOP-92 NSCLC) [µM] | GI50 (SW-620 colon) [µM] | TGI (SW-620 colon) |
| --- | --- | --- | --- | --- | --- | --- | --- | --- | --- | --- | --- | --- | --- | --- | --- | --- | --- | --- | --- | --- |
| COc1ccc2c(c1)[C@@]1(C)CCC3c4ccc(O)cc4CCC3C1C2 (stereo partly specified) | 17.6 | 33.2 µM | 17.7 | 33.7 | 15 | 31 µM | 15.2 | 30.3 µM | 11 | 24.2 µM | 16.8 | 30.8 µM | 14.4 | 27.5 µM | 16.3 | 32.6 µM | 17.2 | 33.9 | 16.9 | 36.1 µM |
| COc1cc(-c2n/c(=C\c3c(O)[nH]c4ccccc34)cc3c2=Nc2ccccc2-3)cc(OC)c1OC | > 24.9 | > 100 µM | 1.73 | > 100 | 1.68 | 6.48 µM | 6.43 | > 100 µM | 0.552 | > 100 µM | 0.39 | > 100 µM | 0.392 | 2.44 µM | 1.39 | > 100 µM | 0.385 | 6.28 | 0.449 | > 100 µM |
| COc1ccc(-c2cc(-c3nnc(SCC(=O)Nc4ccc(C(C)=O)cc4)o3)c3ccccc3n2)cc1 | > 100 | > 100 µM | > 100 | > 100 | > 100 | > 100 µM | > 100 | > 100 µM | 73.7 | > 100 µM | 25.4 | > 100 µM | 2.9 | > 100 µM | 29.1 | > 100 µM | 9.1 | 37.5 | > 100 | > 100 µM |
| Cc1cc(C)c2c(N)c3cccc(C)c3nc2n1 | 3.17 | 33.5 µM | 2.15 | 4.45 | 2.26 | 8.62 µM | 3.86 | 15.9 µM | 1.7 | 4.62 µM | 1.59 | 3.96 µM | 0.667 | 3.85 µM | 2.15 | 6.3 µM | 2.24 | 6.96 | 1.94 | 9.29 µM |
| C=C(C)[C@@H]1CC[C@]2(C(=O)NCCNCCNCCN)CC[C@]3(C)[C@H](CC[C@@H]4[C@@]5(C)CCC(=O)C(C)(C)[C@@H]5CC[C@]43C)[C@@H]12 | 7.34 | 14 µM | 7.91 | 18.3 | 8.7 | 17.5 µM | 8.5 | 17 µM | 8.72 | 16.6 µM | 9.14 | 17.4 µM | 6.65 | 14.9 µM | 7.53 | 15.9 µM | 2.93 | 10.3 | 7.91 | 16.6 µM |
| Cc1cc(NC(=O)NC(=O)c2ccccc2NC(=O)CN)ccc1Oc1ncc(Br)cn1 | – | 39.1 µM and 49.2 µM | – | 38.4 | 0.0399 | 1.78 µM and 0.494 µM | 0.0822 | 41.2 µM and > 100 µM | 0.624 | 34.1 µM and > 100 µM | 0.331 | 15.5 µM and 13.8 µM | 0.43 | 26.1 µM and > 100 µM | 0.608 | 43.2 µM and 29.5 µM | – | 32.7 | 0.506 | 23.4 µM and > 100 µM |
| CCOC(=O)C1=C(c2ccccc2)N(c2ccc(OC)cc2)[C@]2(C#N)C(O)=C(Cl)C(Cl)=C(O)[C@]12C#N | 40.1 | > 100 µM | 22.2 | 52.2 | 18.8 | 37.1 µM | 21.3 | 41.9 µM | 16.4 | 30.9 µM | 17.7 | 33.1 µM | 16.3 | 29.8 µM | 24 | 52.2 µM | 0.545 | 23.3 | 20.2 | 38.4 µM |
| NC(=O)NCCSC1CCCCC1O (stereo unspecified) | – | > 100 µM | – | > 100 | – | > 100 µM | – | > 100 µM | – | > 100 µM | – | > 100 µM | – | > 100 µM | – | > 100 µM | – | > 100 | – | > 100 µM |
| COc1ccc(/C=C\c2cc(OC)c(OC)c(OC)c2)cc1OCC(=O)Nc1nc2ccc(OC(F)(F)F)cc2s1 | 7.89 | > 100 µM | 89.2 | > 100 | 1.93 | 5.14 µM | 4.57 | > 100 µM | 4.77 | > 100 µM | 4.39 | > 100 µM | 3.92 | > 100 µM | 6.01 | > 100 µM | 2.74 | 45.1 | 5.65 | > 100 µM |
| COc1ccc(-n2c(C)nc3c(c(C)nn3-c3ccccc3)c2=O)cc1 | 0.144 | > 100 µM | 5.82 | 75.1 | 0.0305 | 0.116 µM | 2.07 | > 100 µM | 0.065 | > 100 µM | 0.218 | > 100 µM | 0.0443 | 7.91 µM | 1.76 | > 100 µM | 0.433 | 29.3 | 0.0415 | > 100 µM |
| CC1(C)Cc2c(Br)c(Br)c(Br)c(OCC(O)CN3CCOCC3)c2O1 (stereo unspecified) | 7.72 | 20.5 µM | 19.1 | 37.8 | 15.5 | 31.9 µM | 15 | 31.9 µM | 13.6 | 27.9 µM | 13.5 | 27.6 µM | 15.4 | 45.2 µM | 12.1 | 27.8 µM | 3.76 | 21.5 | 15.6 | 29.8 µM |
| COc1ccc2c(c1)C(=O)c1c-2n(CCCN2CCOCC2)c(=O)c2cc([N+](=O)[O-])ccc12 | 0.068 | 12 µM | 0.0504 | 3.08 | < 0.01 | 11 µM | – | 16.2 µM | < 0.01 | 0.0127 µM | < 0.01 | < 0.01 µM | < 0.01 | 0.0454 µM | < 0.01 | > 100 µM | < 0.01 | < 0.01 | < 0.01 | 9.2 µM |
| COc1cc2c(cc1OC)-c1c(c3ccc([N+](=O)[O-])cc3c(=O)n1CCCN)C2=O | 7.75 | 18.3 µM | 6.79 | 14.6 | 7.23 | 15.4 µM | 7.25 | 15.3 µM | 0.325 | 1.17 µM | 0.548 | 1.55 µM | 0.57 | 1.46 µM | 1.4 | 12.3 µM | 7.29 | 16.5 | 0.491 | 5.92 µM |
| Cc1ccc(C[P+](c2ccccc2)(c2ccccc2)c2ccccc2)cc1 | 0.369 | > 58.6 µM | 0.267 | 3.56 | 0.515 | 5.4 µM | 0.987 | 10.6 µM | 1.07 | 4.24 µM | 0.554 | 5.46 µM | 0.382 | 5.21 µM | 2.7 | > 57.8 µM | 0.768 | 22.2 | 1.36 | 12.2 µM |
| COc1ccc(C(=O)CC(c2ccc(OC)c(OC)c2)c2c(O)c3ccccc3oc2=O)cc1OC (stereo unspecified) | – | > 100 µM | – | > 100 | – | > 100 µM | – | > 100 µM | – | > 100 µM | – | > 100 µM | – | > 100 µM | – | > 100 µM | – | > 100 | – | > 100 µM |
| COc1cc(/C=C2\C(=O)Nc3ccccc32)cc(OC)c1OC | 18.8 | > 100 µM | 8.81 | 54 | 4.1 | 45.1 µM | 41.8 | > 100 µM | 16.5 | > 100 µM | 17.9 | 68.3 µM | 17.3 | > 100 µM | 0.955 | > 100 µM | 20.8 | 71.7 | 19.9 | > 100 µM |
| Cc1cc(N=C2C=C(Nc3cc(C)on3)C(=O)c3ccccc32)no1 | – | > 100 µM | – | 47 | – | 22.5 µM | – | > 100 µM | – | > 61.5 µM | – | 26 µM | – | > 100 µM | – | > 100 µM | – | 52.6 | – | > 100 µM |
| CN1CCC(n2[nH]c(-c3ccccc3)c(Cc3ccccc3)c2=O)CC1 | – | > 100 µM | – | > 100 | – | > 100 µM | – | > 100 µM | – | > 100 µM | – | > 100 µM | – | > 100 µM | – | > 100 µM | – | > 100 | – | > 100 µM |
